Assay [1] has as its target human muscarinic M3 receptor (Homo sapiens, UniProt P20309). In words: Whole cell β-lactamase reporter assay in CHO cells expressing the hM3 receptor (antagonist activity). The assay is classed as cell-based. As to conditions: 80 nM carbamyl choline, IC50 converted to Ki by Cheng-Prusoff. On the procedure:
Functional Assessment of Antagonist Activity Using a Whole Cell β-Lactamase Reporter Assay in CHO Cells Expressing the hM3 Receptor.
CHO (Chinese Hamster Ovary) cells recombinantly expressing the human muscarinic M3 receptor were transfected with the NFAT_β-Lac_Zeo plasmid. Cells were grown in DMEM with Glutamax-1, supplemented with 25 mM HEPES(Life Technologies 32430-027), containing 10% FCS (Foetal Calf Serum; Sigma F-7524), […] Sodium pyruvate (Sigma S-8636), NEAA (non-Essential Amino Acids; Invitrogen 11140-035) and […] Zeocin (Invitrogen R250-01).
Cells were harvested for assay when they reached 80-90% confluency using enzyme free cell Dissociation Solution (Life technologies 13151-014) incubated with the cells for 5 min at 37° C. in an atmosphere containing 5% CO2. Detached cells were collected in warmed growth media and centrifuged at 200 rpm for 10 min, washed in PBS (Phosphate Buffered Saline; Life Technologies 14190-094) and centrifuged again as just described. The cells were re-suspended at 2×10^5 cells/ml in growth medium (composition as described above). 20 μl of this cell suspension was added to each well of a 384 well black clear bottomed plate (Greiner Bio One 781091-PFI). The assay buffer used was PBS supplemented with 0.05% Pluronic F-127 (Sigma 9003-11-6) and 2.5% DMSO. Muscarinic M3 receptor signalling was stimulated using 80 nM carbamyl choline (Aldrich N240-9) incubated with the cells for 4 h at 37° C./5% CO2 and monitored at the end of the incubation period using a Tecan SpectraFluor+plate reader (λ−excitation 405 nm, emission 450 nm and 503 nm). Compounds under test were added to the assay at the beginning of the 4 h incubation period and compound activity measured as the concentration dependent inhibition of the carbamyl choline induced signal. Inhibition curves were plotted and IC50 values generated using a 4-parameter sigmoid fit and converted to Ki values using the Cheng-Prusoff correction and the KD value for carbamyl choline in the assay.
A general note: In a reporter assay the amount or activity of a reporter protein is the signal.

The target of assay [2] is human adrenergic B2 receptor (Homo sapiens, UniProt P07550). In words: Whole cell luciferase reporter assay in CHO cells expressing the hB2 receptor (agonist potency). To be noted: 4 h incubation, read-out: EC50 - beta2. Format: cell-based. The procedure:
Functional Assessment of Agonist Potency and Efficacy Using a Whole Cell Luciferase Reporter Assay in CHO Cells Expressing the hB2 Receptor.
CHO (Chinese Hamster Ovary) cells recombinantly expressing the human adrenergic B2 receptor and transfected with a luciferase enzyme reporter gene were maintained in growth media composed of F12:DMEM (Sigma D6421) containing 10% Foetal Bovine Serum (FBS: Sigma F03921) 10 μg/ml puromycin (Sigma N277698), 0.5 mg/ml Geneticin G418 (Sigma G7034) and 2 mM L-glutamine (Sigma G7513). The cells were kept in sterile conditions at 37° C., in an atmosphere containing 5% CO2.
hB2 Luciferase Assay Protocol
Cells were harvested for assay when they reached 80-90% confluency using enzyme free cell Dissociation Solution (Life technologies 13151-014) incubated with the cells for 5 min at 37° C. in an atmosphere containing 5% CO2. Detached cells were collected in warmed growth media (composition described above), and re-suspended in assay media (F12:DMEM (Sigma D6421) containing 1% Foetal Bovine Serum (FBS: Sigma F03921), 10 μg/ml puromycin (Sigma N277698), 0.5 mg/ml Geneticin G418 (Sigma G7034) and 2 mM L-glutamine (Sigma G7513))to give a viable cell concentration of 1×10^6 cells/ml. 10 ul of this suspension was added to each well of a tissue culture treated low volume 384 well plate (Greiner788073) and the plate incubated in an atmosphere containing 5% CO2 at 37° C. for 2 h. Concentration ranges of test compounds were prepared in phosphate Buffered Saline containing 0.05% pluronic-F127 (Sigma P2443) and 2.5% DMSO. 2 μl of each test concentration were added to the appropriate 384 plate well and returned to the incubator for a further 4 h. At the end of the incubation period 4 μl of Steady-Glo reagent (Steady-Glo Luciferase assay system (Promega E2520) was added to each well and the plate read immediately in a Leadseeker Plate reader (Amersham Bioscience) using a 660 nm filter. Concentration effect curves were plotted and EC50 values generated using a 4-parameter sigmoid fit using an in-house data analysis programme. Isoprenaline was run in every assay as a reference standard.

human muscarinic M3 receptor, sequence (P20309 whole entry): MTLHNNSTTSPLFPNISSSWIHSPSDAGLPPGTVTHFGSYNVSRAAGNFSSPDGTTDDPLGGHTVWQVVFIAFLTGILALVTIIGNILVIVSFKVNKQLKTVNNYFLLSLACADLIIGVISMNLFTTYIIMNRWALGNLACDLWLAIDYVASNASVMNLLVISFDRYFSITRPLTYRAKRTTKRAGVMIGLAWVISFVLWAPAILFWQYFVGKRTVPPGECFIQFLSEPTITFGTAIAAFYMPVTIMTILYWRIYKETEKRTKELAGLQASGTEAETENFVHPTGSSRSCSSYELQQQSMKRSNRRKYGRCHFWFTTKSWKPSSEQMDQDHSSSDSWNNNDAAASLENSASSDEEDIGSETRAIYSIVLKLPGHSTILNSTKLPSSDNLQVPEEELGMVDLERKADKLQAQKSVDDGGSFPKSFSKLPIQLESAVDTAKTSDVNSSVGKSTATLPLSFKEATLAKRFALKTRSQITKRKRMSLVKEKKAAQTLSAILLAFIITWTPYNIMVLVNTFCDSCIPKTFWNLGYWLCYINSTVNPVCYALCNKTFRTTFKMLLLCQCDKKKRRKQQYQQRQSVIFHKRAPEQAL
human adrenergic B2 receptor, sequence (P07550 whole entry): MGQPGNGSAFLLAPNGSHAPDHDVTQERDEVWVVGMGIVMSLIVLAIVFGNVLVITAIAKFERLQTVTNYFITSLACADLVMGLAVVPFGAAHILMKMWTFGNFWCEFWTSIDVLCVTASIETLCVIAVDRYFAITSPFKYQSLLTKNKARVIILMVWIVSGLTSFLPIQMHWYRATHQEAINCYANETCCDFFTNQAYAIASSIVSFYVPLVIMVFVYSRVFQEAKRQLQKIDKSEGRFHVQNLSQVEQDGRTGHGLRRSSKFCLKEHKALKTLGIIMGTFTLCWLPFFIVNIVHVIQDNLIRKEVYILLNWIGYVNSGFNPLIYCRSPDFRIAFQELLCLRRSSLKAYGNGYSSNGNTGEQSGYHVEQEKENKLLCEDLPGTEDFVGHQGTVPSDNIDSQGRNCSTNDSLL

`CC(C)N(CC[C@H](c1ccccc1)c1cc(CCCCCCCCCCNC[C@H](O)c2ccc(O)c(NS(C)(=O)=O)c2)ccc1O)C(C)C` [Example 1, N-(5-{(1R)-2-[(10-{3-[(1R)-3-(diisopropylamino)-1-phenylpropyl]-4-hydroxyphenyl}decyl)amino]-1-hydroxyethyl}-2-hydroxyphenyl)methanesulfonamide]: in assay [1], the affinity, expressed as Ki, was 3.4 nM. Also, the concentration for a half-maximal effect (EC50) (commonly the concentration giving half of the maximal effect) in assay [2] came to 0.88 nM.
For `CC(C)N(CC[C@H](c1ccccc1)c1cc(CCCOc2ccc(CCNC[C@H](O)c3ccc(O)c(NS(C)(=O)=O)c3)cc2)ccc1O)C(C)C` [Example 2, N-{5-[(1R)-2-({2-[4-(3-{3-[(1R)-3-(diisopropylamino)-1-phenylpropyl]-4-hydroxyphenyl}propoxy)phenyl]ethyl}amino)-1-hydroxyethyl]-2-hydroxyphenyl}methanesulfonamide], the inhibition constant Ki (usually a measure of affinity in units of concentration, obtained from inhibition or displacement) in assay [1] stood at 1.1 nM. Also, the EC50 in assay [2] was determined as 0.32 nM.
Turning to `CC(C)N(CC[C@H](c1ccccc1)c1cc(CCCCOc2ccc(CCNC[C@H](O)c3ccc(O)c(NS(C)(=O)=O)c3)cc2)ccc1O)C(C)C` [Example 3, N-{5-[(1R)-2-({2-[4-(4-{3-[(1R)-3-(Diisopropylamino)-1-phenylpropyl]-4-hydroxyphenyl}butoxy)phenyl]ethyl}amino)-1-hydroxyethyl]-2-hydroxyphenyl}methanesulfonamide], the affinity in assay [1], expressed as Ki, was 1.4 nM. Besides, the EC50 in assay [2] was determined as 0.14 nM.
`CC(C)N(CC[C@H](c1ccccc1)c1cc(OCCCCCCCNC[C@H](O)c2ccc(O)c(NS(C)(=O)=O)c2)ccc1O)C(C)C` [Example 4, N-(5-{(1R)-2-[(7-{3-[(1R)-3-(diisopropylamino)-1-phenylpropyl]-4-hydroxyphenoxy}heptyl)amino]-1-hydroxyethyl}-2-hydroxyphenyl)methanesulfonamide]: the Ki in assay [1] turned out to be 0.28 nM. Besides, the concentration for a half-maximal effect (EC50) in assay [2] was 1.3 nM.
In assay [1], `CC(C)N(CC[C@H](c1ccccc1)c1cc(CCCCOCCCCCCNC[C@H](O)c2ccc(O)c(NS(C)(=O)=O)c2)ccc1O)C(C)C` [Example 6, N-{5-[(1R)-2-{[6-(4-{3-[(1R)-3-(Diisopropylamino)-1-phenylpropyl]-4-hydroxyphenyl}butoxy)hexyl]amino}-1-hydroxyethyl]-2-hydroxyphenyl}methanesulfonamide] had an inhibition constant (Ki) of 2.4 nM. The EC50 in assay [2] was 0.19 nM.
The corresponding values for `CC(C)N(CC[C@H](c1ccccc1)c1cc(CCCCOc2ccc(CCNC[C@H](O)c3ccc(O)c(NC=O)c3)cc2)ccc1O)C(C)C` [Example 7, N-{5-[(1R)-2-({2-[4-(4-{3-[(1R)-3-(diisopropylamino)-1-phenylpropyl]-4-hydroxyphenyl}butoxy)phenyl]ethyl}amino)-1-hydroxyethyl]-2-hydroxyphenyl}formamide] are 2.1 nM and 0.049 nM.
Turning to `CC(C)N(CC[C@H](c1ccccc1)c1cc(CCCCOc2ccc(CCNC[C@H](O)c3ccc(O)c4[nH]c(=O)ccc34)cc2)ccc1O)C(C)C` [Example 8, 5-[(1R)-2-({2-[4-(4-{3-[(1R)-3-(diisopropylamino)-1-phenylpropyl]-4-hydroxyphenyl}butoxy)phenyl]ethyl}amino)-1-hydroxyethyl]-8-hydroxyquinolin-2(1H)-one], the concentration for a half-maximal effect (EC50) in assay [2] worked out at 0.035 nM.
In turn, `CC(C)N(CC[C@H](c1ccccc1)c1cc(CCCCOc2ccc(CCNC[C@H](O)c3cc(O)cc(O)c3)cc2)ccc1O)C(C)C` [Example 9] returned an inhibition constant (Ki) in assay [1] of 1.1 nM. For the same compound, in assay [2], the EC50 stood at 4.8 nM.
In assay [1], `CC(C)N(CC[C@H](c1ccccc1)c1cc(CCOc2cccc(CCNC[C@H](O)c3ccc(O)c(NS(C)(=O)=O)c3)c2)ccc1O)C(C)C` [Example 10, N-{5-[(1R)-2-({2-[3-(2-{3-[(1R)-3-(diisopropylamino)-1-phenylpropyl]-4-hydroxyphenyl}ethoxy)phenyl]ethyl}amino)-1-hydroxyethyl]-2-hydroxyphenyl}methanesulfonamide] had a Ki of 1.1 nM. Besides, in assay [2], the EC50 was determined as 0.26 nM.
The compound `CC(C)N(CC[C@H](c1ccccc1)c1cc(CCOc2cccc(CCNC[C@H](O)c3ccc(O)c(CO)c3)c2)ccc1O)C(C)C` [Example 11, 2-[(1R)-3-(diisopropylamino)-1-phenylpropyl]-4-(2-{3-[2-({(2R)-2-hydroxy-2-[4-hydroxy-3-(hydroxymethyl)phenyl]ethyl}amino)ethyl]phenoxy}ethyl)phenol] displayed an inhibitory constant (Ki) in assay [1] of 1.5 nM. In assay [2], the 50% effective concentration (EC50) stood at 2.2 nM.
In assay [1], `CC(C)N(CC[C@H](c1ccccc1)c1cc(CCOc2ccc(CCNC[C@H](O)c3cc(O)cc(O)c3)cc2)ccc1O)C(C)C` [Example 12, 5-[(1R)-2-({2-[4-(2-{3-[(1R)-3-(diisopropylamino)-1-phenylpropyl]-4-hydroxyphenyl}ethoxy)phenyl]ethyl}amino)-1-hydroxyethyl]benzene-1,3-diol] returned an inhibitory constant (Ki) of 0.26 nM. Also, in assay [2], the EC50 was 13.8 nM.
The corresponding values for `CC(C)N(CC[C@H](c1ccccc1)c1cc(CCOc2ccc(CCNC[C@H](O)c3ccc(O)c(NC=O)c3)cc2)ccc1O)C(C)C` [Example 13, N-{5-[(1R)-2-({2-[4-(2-{3-[(1R)-3-(diisopropylamino)-1-phenylpropyl]-4-hydroxyphenyl}ethoxy)phenyl]ethyl}amino)-1-hydroxyethyl]-2-hydroxyphenyl}formamide] are 0.38 nM and 0.078 nM.
The corresponding values for `CC(C)N(CC[C@H](c1ccccc1)c1cc(CCOc2ccc(CCNC[C@H](O)c3ccc(O)c4[nH]c(=O)ccc34)cc2)ccc1O)C(C)C` [Example 14, 5-[(1R)-2-({2-[4-(2-{3-[(1R)-3-(diisopropylamino)-1-phenylpropyl]-4-hydroxyphenyl}ethoxy)phenyl]ethyl}amino)-1-hydroxyethyl]-8-hydroxyquinolin-2(1H)-one] are 0.76 nM and 0.054 nM.
With `CC(C)N(CC[C@H](c1ccccc1)c1cc(CCOc2ccc(CCNC[C@H](O)c3ccc(O)c(CO)c3)cc2)ccc1O)C(C)C` [Example 15, 2-[(1R)-3-(diisopropylamino)-1-phenylpropyl]-4-(2-{4-[2-({(2R)-2-hydroxy-2-[4-hydroxy-3-(hydroxymethyl)phenyl]ethyl}amino)ethyl]phenoxy}ethyl)phenol], in assay [1], the affinity, expressed as Ki, was 0.06 nM. Moreover, the EC50 in assay [2] was 0.25 nM.
`CC(C)N(CC[C@H](c1ccccc1)c1cc(CCCCCCCCNC[C@H](O)c2ccc(O)c(NS(C)(=O)=O)c2)ccc1O)C(C)C` [Example 16, N-(5-{(1R)-2-[(8-{3-[(1R)-3-(diisopropylamino)-1-phenylpropyl]-4-hydroxyphenyl}octyl)amino]-1-hydroxyethyl}-2-hydroxyphenyl)methanesulfonamide] showed a Ki in assay [1] of 2 nM. In addition, the concentration giving a half-maximal response (EC50) in assay [2] stood at 1.3 nM.
For the compound `CC(C)N(CC[C@H](c1ccccc1)c1cc(CCCCOc2ccc(CCNC[C@H](O)c3ccc(O)c(CO)c3)cc2)ccc1O)C(C)C` [Example 18, 2-[(1R)-3-(diisopropylamino)-1-phenylpropyl]-4-(4-{4-[2-({(2R)-2-hydroxy-2-[4-hydroxy-3-(hydroxymethyl)phenyl]ethyl}amino)ethyl]phenoxy}butyl)phenol], in assay [2], the concentration giving a half-maximal response (EC50) is 0.22 nM.
